The term melting point denotes the temperature, or range, at which the solid turns liquid. Turning to `N#Cc1ccc2c(c1)CCc1c(O)cc(O)cc1S2` [Example 29], the melting point fell in the range of 237.4 to 238.6 °C.
The result for `Nc1cccc(-c2ccc3c(c2)Oc2cc(O)cc(O)c2C(=O)C3)c1` [Example 74] reads 228.3 to 230 °C; that for `CCCCCCc1ccc2c(c1)CCc1c(O)cc(O)cc1O2`, 135.6 to 137.6 °C; that for `Oc1cc(O)c2c(c1)Sc1ccc(Cl)cc1CC2` [Example 26], 181.1 to 184.9 °C.
Take `CCC1C(=O)c2cc(O)c(O)cc2Sc2ccc(-c3cc4ccccc4s3)cc21` (centres unmarked) [Example 172]: the melting point is 251.4 to 255.5 °C (dec.).
The result for `CCC1C(=O)c2cc(O)c(O)cc2Sc2ccc(-c3ccco3)cc21` (centres unmarked) [Example 159] reads 238.7 to 241.7 °C; that for `O=C1Cc2ccc(-c3ccc(O)cc3O)cc2Oc2cc(O)cc(O)c21` [Example 100], 239.1 to 242.6 °C.
As for `CSc1ccc2c(c1)Sc1cc(O)cc(O)c1C(=O)C2` [Example 19], the figure is 182.3 to 184.4 °C; as for `O=C1Cc2ccc(-c3cccc(Cl)c3)cc2Oc2cc(O)cc(O)c21` [Example 69], 199.9 to 201.4 °C; as for `Cc1ccc(-c2ccc3c(c2)Oc2cc(O)cc(O)c2C(=O)C3)cc1` [Example 71], 208.8 to 210.2 °C.
Take `O=C1Cc2cc(-c3cccc([N+](=O)[O-])c3)ccc2Sc2cc(O)cc(O)c21` [Example 80]: the melting point is > 250 °C (dec.).
In the case of `CCCc1ccc2c(c1)CC(=O)c1c(O)cc(O)cc1O2` [Example 47], the melting point fell in the range of 121 to 123 °C.
`CCC1C(=O)c2cc(O)c(O)cc2Sc2ccc(Br)cc21` (centres unmarked) [Example 44] had a melting point of 235.6 to 237.4 °C.
As for `O=C1Cc2ccc(Br)cc2Sc2cc(O)cc(O)c21` [Example 9, 3-Bromo-7,9-dihydroxy-10,11-dihydrodibenzo[b,f]thiepin-10-one], the melting point was > 200 °C (dec.).
As for `CCCCc1ccc2c(c1)CC(=O)c1c(O)cc(O)cc1S2` [Example 53], the figure is 106.9 to 108.1 °C; as for `CCC1C(=O)c2c(O)cc(O)cc2Sc2ccccc21` (centres unmarked) [Example 38], 175 to 177.5 °C; as for `CCON=C(C)c1ccc2c(c1)CCc1c(O)cc(O)cc1S2` [Example 139], 110.7 to 112.4 °C.
Compound `O=C(Cc1ccc2c(c1)CC(=O)c1c(O)cc(O)cc1O2)C1=CCCCC1` [Example 66] gave a melting point of 173.8 to 175.8 °C.
With `Oc1cc(O)c2c(c1)Oc1ccc(CCc3ccccc3)cc1CC2` [Example 113], the melting point was 151.8 to 152.7 °C.
For the compound `N#Cc1ccc2c(c1)CCc1c(O)cc(O)cc1O2` [Example 122], the melting point lay in the range of 211.8 to 217.3 °C.
As for `O=C1Cc2cc(-c3ccccc3)ccc2Sc2cc(O)cc(O)c21` [Example 78], the melting point was in the range of 190.8 to 195.3 °C.
`O=C1Cc2cc(Cl)ccc2Sc2cc(O)cc(O)c21` [Example 15]: the melting point lay within 217.9 to 221.6 °C.
The result for `CCC1C(=O)c2cc(O)c(O)cc2Sc2cc(-c3cccc(Cl)c3)ccc21` (centres unmarked) [Example 157] reads 175.5 to 176.8 °C; that for `Oc1cc(O)c2c(c1)Sc1ccc(-c3ccco3)cc1CC2` [Example 127], 213.7 to 214.7 °C.
As to `Cc1ccc(-c2ccc3c(c2)Sc2cc(O)cc(O)c2C(=O)C3)cc1` [Example 86], the melting point fell in the range of 228.4 to 235.2 °C.
For the compound `O=C1Cc2ccc(C#Cc3ccccc3)cc2Oc2cc(O)cc(O)c21` [Example 101], the melting point fell in the range of 189.4 to 191.1 °C.
For the compound `CCC1C(=O)c2cc(O)c(O)cc2Sc2cc(Br)ccc21` (centres unmarked) [Example 45], the melting point is 227.2 to 229.9 °C.
`Oc1cc(O)c2c(c1)Oc1cc(CCc3ccccc3)ccc1CC2` [Example 108] came in with a melting point of 169.1 to 174.9 °C.
Take `CCC1C(=O)c2cc(O)c(O)cc2Sc2cc(-c3ccc(-c4ccccc4)cc3)ccc21` (centres unmarked) [Example 171]: the melting point was above 300 °C.

The record behind these values is US6700013B2, “Tricyclic fused heterocycle compounds, process for preparing the same and use thereof” (Nippon Suisan Kaisha, Ltd., priority 1999, dated 2004).
